Test results from PubChem BioAssay (NCI).
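Five compound concentrations were applied to cells in 96-well plates for 48 hours; endpoints were derived by simple linear interpolation of the resulting dose-response curve. TGI: total growth inhibition.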

How the values were obtained:
Assay in all cases: NCI tumour cell line growth inhibition, 48 h
[1] = system: A498 renal
[2] = system: A549 NSCLC
[3] = system: CAKI-1 renal
[4] = system: CCRF-CEM leukemia
[5] = system: COLO 205 colon
[6] = system: DLD-1 colon
[7] = system: DMS 114 small cell lung
[8] = system: DMS 273 small cell lung
[9] = system: EKVX NSCLC
[10] = system: HCC-2998 colon
[11] = system: HCT-116 colon
[12] = system: HCT-15 colon
[13] = system: HL-60(TB) leukemia
[14] = system: HOP-18 NSCLC
[15] = system: HOP-62 NSCLC
[16] = system: HOP-92 NSCLC
[17] = system: HT29 colon
[18] = system: IGROV1 ovarian
[19] = system: K-562 leukemia
[20] = system: KM12 colon
[21] = system: KM20L2 colon
[22] = system: LOX IMVI melanoma
[23] = system: M19-MEL melanoma
[24] = system: MALME-3M melanoma
[25] = system: MCF7 breast
[26] = system: MOLT-4 leukemia
[27] = system: NCI-H226 lung
[28] = system: NCI-H23 lung
[29] = system: NCI-H460 lung
[30] = system: NCI-H522 lung
[31] = system: NCI/ADR-RES ovarian
[32] = system: OVCAR-3 ovarian
[33] = system: OVCAR-4 ovarian
[34] = system: OVCAR-5 ovarian
[35] = system: OVCAR-8 ovarian
[36] = system: P388 leukemia
[37] = system: P388/ADR leukemia
[38] = system: RPMI-8226 leukemia
[39] = system: RXF 393 renal
[40] = system: SF-268 CNS
[41] = system: SF-295 CNS
[42] = system: SF-539 CNS
[43] = system: SK-MEL-2 melanoma
[44] = system: SK-MEL-28 melanoma
[45] = system: SK-MEL-5 melanoma
[46] = system: SK-OV-3 ovarian
[47] = system: SN12C renal
[48] = system: SN12K1 renal
[49] = system: SNB-19 CNS
[50] = system: SNB-75 CNS
[51] = system: SNB-78 CNS
[52] = system: SW-620 colon
[53] = system: U251 CNS
[54] = system: UACC-257 melanoma
[55] = system: UACC-62 melanoma
[56] = system: UO-31 renal
[57] = system: XF 498 CNS

CCC/C=C/C=C\C(=O)O[C@@H]1[C@@H](C)[C@]2(O)[C@@H]3C=C(C)C(=O)[C@H]3CC(COC(C)=O)=C[C@H]2[C@@H]2C(C)(C)[C@]12OC(C)=O
TGI [1]: 33.3 µM | TGI [2]: 97.6 µM | TGI [3]: 72.2 µM | TGI [4]: 36.2 µM | TGI [5]: 22.5 µM | TGI [6]: 57.2 µM | TGI [7]: 94.6 µM | TGI [8]: 82.4 µM | TGI [9]: 105 µM | TGI [10]: 58.3 µM | TGI [11]: 57.5 µM | TGI [12]: 77.1 µM | TGI [13]: 30.5 µM | TGI [14]: 109 µM | TGI [15]: 33.8 µM | TGI [16]: 156 µM | TGI [17]: 84.6 µM | TGI [18]: 109 µM | TGI [19]: 128 µM | TGI [20]: 106 µM | TGI [21]: 88.8 µM | TGI [22]: 57.7 µM | TGI [23]: 76.5 µM | TGI [24]: 86.6 µM | TGI [25]: 83.1 µM | TGI [26]: 85.2 µM | TGI [27]: > 97.6 µM | TGI [28]: 98.6 µM | TGI [29]: 63.7 µM | TGI [30]: > 89.6 µM | TGI [31]: 114 µM | TGI [32]: 91.2 µM | TGI [33]: 51.4 µM | TGI [34]: 119 µM | TGI [35]: 116 µM | TGI [36]: 9.61 µM | TGI [37]: 300 µM | TGI [38]: 95.8 µM | TGI [39]: 113 µM | TGI [40]: 87.7 µM | TGI [41]: 39.5 µM | TGI [42]: 83.5 µM | TGI [43]: 104 µM | TGI [44]: 86.7 µM | TGI [45]: 108 µM | TGI [46]: 143 µM | TGI [47]: 100 µM | TGI [48]: 48.8 µM | TGI [49]: 114 µM | TGI [50]: 121 µM | TGI [51]: 152 µM | TGI [52]: 70 µM | TGI [53]: 69.1 µM | TGI [54]: 91.5 µM | TGI [55]: 82.5 µM | TGI [56]: 92.3 µM | TGI [57]: 16.7 µM
